Measured values reported in US20160206597A1, “New Use” (priority 2013, published 2016).

Tests used:
[1] = system: patients with chronic heart failure with preserved left-ventricular ejection fraction (HF-PEF); experiment: Safety and tolerability in the 36-week HF-PEF study; settings: 36-week study
Procedure: (§2) Eligible patients are enrolled into a 2-week, single-blind placebo run-in period, during which time they continue their background medications. ACE inhibitors and angiotensin receptor blockers are required to be discontinued 24 hours prior to randomization.
(§3) At the investigator's discretion, patients are allowed to stay on each titration dose for an additional week. […] Patients remain on these doses for the remainder of the study, although those not tolerating the maximum dose of study medication could be down-titrated to a lower dose at the Investigator's discretion and then re-challenged to the maximum dose of study medication, or remain on the lower dose.

[2] = system: patients with chronic heart failure with preserved left-ventricular ejection fraction (HF-PEF); experiment: Echocardiographic parameters in the 36-week HF-PEF study; type: in vivo, human; settings: for LA Volume Index, Δ from Baseline / LA Volume, Δ from Baseline / LA dimension, Δ from Baseline / LV mass index, Δ from Baseline / Relative wall thickness, Δ from Baseline: at 36 weeks
Procedure: Echocardiographic studies are performed at screening, randomization, at week 12, and week 36 or at end of study or early termination visits. Echocardiograms performed at screening are evaluated by local readers for qualifying information. All other echocardiograms are only performed in patients meeting NT-proBNP entry criterion and are evaluated centrally. For assessment of global ventricular size and function, left ventricular end-diastolic and end-systolic volumes are obtained utilizing the Simpson's rule method and left ventricular ejection fraction is derived in the usual fashion. Maximal left atrial dimension is measured in the parasternal long-axis view, and left atrial volume is assessed with the Simpson's rule method and indexed to body surface area. Measurements are made in triplicate in accordance with the recommendations of the American Society of Echocardiography. Blood pressure and heart rate are measured at all study visits with a calibrated standard sphygmomanometer and appropriate size cuff. The use of concomitant medication is recorded at each study visit.

[3] = system: patients with chronic heart failure with preserved left-ventricular ejection fraction (HF-PEF); experiment: Renal function parameters (eGFR, serum creatinine, urinary albumin creatinine ratio) in the 36-week HF-PEF study; type: in vivo, human; settings: for urinary albumin creatinine ratio at baseline: baseline before treatment; for eGFR decrease over 36 weeks: p=0.007; for urinary albumin creatinine ratio at week 36: p=0.02 between groups
Procedure: The term “eGFR” refers to estimated glomerular filtration rate. Within the context of the present invention the eGFR is calculated by the Modification in Diet in Renal Disease (MDRD) formula, which is the one recommended by NICE and The Renal Association (UK), and which is based on the equation described in Levey A S, Bosch J P, Lewis J B, et al; “A more accurate method to estimate glomerular filtration rate from serum creatinine: a new prediction equation. Modification of Diet in Renal Disease Study Group.” Ann Intern Med. 1999 Mar. 16; 130(6):461-70.
(§1) Men and women aged 40 years or older with a left ventricular ejection fraction of 45% or above, and a documented history of heart failure with associated signs or symptoms (dyspnea on exertion, orthopnea, paroxysmal dyspnea, and peripheral edema) are eligible. Patients are required to have an NT-proBNP >400 pg/mL at screening, be on diuretic therapy, and have a systolic blood pressure less than 140 mm Hg, or 160 mm Hg or less if on three or more blood pressure medications at randomization. Additional inclusion criteria include an estimated glomerular filtration rate (eGFR) of at least 30 ml/min/1.73 m^2 at screening (calculated by the Modification of Diet in Renal Disease formula) and a potassium concentration of no more than 5.2 mmol/L.

[4] = system: patients with chronic heart failure with preserved left-ventricular ejection fraction (HF-PEF); experiment: NT-proBNP in 36-week randomized double-blind study of LCZ696 vs valsartan; type: in vivo, human; settings: for NT-proBNP at 12 weeks / NT-proBNP at 36 weeks / NT-proBNP, Baseline (12-week analysis) / NT-proBNP, Baseline (36-week analysis): geometric mean; for NT-proBNP at 12 weeks / NT-proBNP at 36 weeks: LCZ696 200 mg or valsartan 160 mg twice daily; for NT-proBNP, Baseline (12-week analysis) / NT-proBNP, Baseline (36-week analysis): baseline before treatment; for NT-proBNP, Baseline (12-week analysis): patients evaluated at 12 weeks; for NT-proBNP, Baseline (36-week analysis): patients evaluated at 36 weeks; for Ratio of change in NT-proBNP (LCZ696/valsartan) at 12 weeks: baseline to 12 weeks, 95% CI 0.64-0.92, p = 0.005
Description: as §1
Patients are excluded if they had prior left ventricular ejection fraction less than 45% at any time, isolated right heart failure due to pulmonary disease, dyspnea due to non-cardiac causes such as pulmonary disease, anemia, or severe obesity, primary valvular or myocardial diseases, or coronary artery or cerebrovascular disease requiring revascularization within 3 months of screening or likely to require revascularization during the trial.

[5] = system: patients with chronic heart failure with preserved left-ventricular ejection fraction (HF-PEF); experiment: NYHA class, clinical composite assessment and KCCQ in the 36-week HF-PEF study; settings: p=0.05
Procedure: as §2, §3
The primary study endpoint is the change from baseline in NT-proBNP assessed at 12 weeks, and is analyzed using the last observation after baseline carried forward. […]
The clinical composite assessment is based on a composite of the NYHA functional classification, patient global assessment and major adverse clinical events. […] Patients are determined to be worse if at the endpoint visit they experienced a major adverse cardiac event during the double blind treatment or reported worsening of their NYHA class or patient global assessment. […]

Q: `CCCCC(=O)N(Cc1ccc(-c2ccccc2-c2nnn[nH]2)cc1)[C@H](C(=O)O)C(C)C` [Valsartan, (S)—N-valeryl-N-{[2′-(1H-tetrazole-5-yl)-biphenyl-4-yl]-methyl}-valine, reference compound] was tested. Which “Adverse event atrial fibrillation (number of patients)” value [1] did it give?
A: Its value is 8 patients.

Q: And the “Adverse event atrial fibrillation (percent of patients)” value [1]?
A: The value was 5.3%.

Q: What about the Angio-oedema occurrence [1] of the same compound?
A: The Angio-oedema occurrence was “no patients”.

Q: And the “Deaths among serious adverse events” value [1]?
A: The value was “two deaths”.

Q: What about the “Patients with one or more serious adverse events (number)” value [1] of the same compound?
A: Its value is 30 patients.

Q: What about the “Patients with one or more serious adverse events (percent)” value [1] of the same compound?
A: Its value is 20%.

Q: What about the “LA Volume Index, Δ from Baseline” value [2] of the same compound?
A: The value was 0.31 ml/m^2.

Q: And the “LA Volume, Δ from Baseline” value [2]?
A: Its value is 0.37 mL.

Q: What about the “LA dimension, Δ from Baseline” value [2] of the same compound?
A: The value was −0.08 cm.

Q: And the “LV mass index, Δ from Baseline” value [2]?
A: Its value is −1.93 g/m^2.

Q: And the “Relative wall thickness, Δ from Baseline” value [2]?
A: The value was “+0.01%”.

Q: And the “LA Volume Index, Baseline” value ([2]; baseline before treatment)?
A: Its value is 36.80 ml/m^2.

Q: And the “LA Volume, Baseline” value ([2]; baseline before treatment)?
A: The value was 68.28 mL.

Q: And the “LA dimension, Baseline” value ([2]; baseline before treatment)?
A: Its value is 3.73 cm.

Q: And the “LV mass index, Baseline” value ([2]; baseline before treatment)?
A: The value was 79.45 g/m^2.

Q: What about the “urinary albumin creatinine ratio at baseline” value [3] of the same compound?
A: The value was 2.0 mg/mmol.

Q: And the “eGFR decrease over 36 weeks” value [3]?
A: The value was −5.2 mL/min per 1.73 m^2.

Q: What about the “urinary albumin creatinine ratio at week 36” value [3] of the same compound?
A: Its value is 2.0 mg/mmol.

Q: And the “NT-proBNP at 12 weeks” value ([4]; 12 weeks)?
A: The value was 835 pg/mL.

Q: What about the “NT-proBNP at 36 weeks” value [4] of the same compound?
A: The value was 607 pg/mL.

Q: And the “NT-proBNP, Baseline (12-week analysis)” value [4]?
A: The value was 862 pg/mL.

Q: What about the “NT-proBNP, Baseline (36-week analysis)” value [4] of the same compound?
A: The value was 822 pg/mL.

Q: With “trisodium [3-((1S,3R)-1-biphenyl-4-ylmethyl-3-ethoxycarbonyl-1-butylcarbamoyl) propionate-(S)-3′-methyl-2′-(pentanoyl{2″-(tetrazol-5-ylate)biphenyl-4′-ylmethyl}amino)butyrate]hemipentahydrate [LCZ696]” as the compound, how does the “NYHA class at 36 weeks compared with the valsartan group” value [5] read?
A: Its value is “improvement in NYHA class”.

Q: What about the “Left atrial volume, left atrial volume index (LAVI) and left atrial dimension, result in words” value ([2]; after 36 weeks of treatment, p=0.003, 0.007 and 0.034) of the same compound?
A: The value was “reduced significantly”.

Q: And the “LA Volume Index, Δ from Baseline” value [2]?
A: The value was −2.61 ml/m^2.

Q: And the “LA Volume, Δ from Baseline” value [2]?
A: Its value is -4.61 mL.

Q: What about the “LA dimension, Δ from Baseline” value [2] of the same compound?
A: Its value is −0.15 cm.

Q: What about the “LV mass index, Δ from Baseline” value [2] of the same compound?
A: Its value is −2.78 g/m^2.

Q: What about the “Relative wall thickness, Δ from Baseline” value [2] of the same compound?
A: The value was “+0.01%”.

Q: And the “LA Volume Index, Baseline” value ([2]; baseline before treatment)?
A: Its value is 35.01 ml/m^2.

Q: What about the “LA Volume, Baseline” value ([2]; baseline before treatment) of the same compound?
A: Its value is 65.26 mL.

Q: And the “LA dimension, Baseline” value ([2]; baseline before treatment)?
A: Its value is 3.68 cm.

Q: And the “LV mass index, Baseline” value ([2]; baseline before treatment)?
A: The value was 76.56 g/m^2.

Q: What about the “Relative wall thickness, Baseline” value ([2]; baseline before treatment) of the same compound?
A: The value was 0.37.

Q: What about the “Preservation of renal function compared with valsartan” value ([3]; after 36 weeks of therapy, eGFR and creatinine data) of the same compound?
A: The value was “better preserved renal function”.

Q: And the “eGFR, LSM of difference (95% CI), LCZ696 vs. Valsartan” value ([3]; at 36 weeks, P 0.0163)?
A: The value was 3.46 (0.64, 6.27) mL/min/1.73 m^2.

Q: And the “Serum creatinine, LSM of difference (95% CI), LCZ696 vs. Valsartan” value ([3]; at 36 weeks, P 0.0193)?
A: The value was −4.83 (−8.87, −0.79) μmol/L.

Q: And the “urinary albumin creatinine ratio at baseline” value [3]?
A: The value was 1.9 mg/mmol.

Q: And the “eGFR decrease over 36 weeks” value [3]?
A: The value was −1.6 mL/min per 1.73 m^2.

Q: And the “urinary albumin creatinine ratio at week 36” value [3]?
A: The value was 2.9 mg/mmol.

Q: And the “Reduction in NT-proBNP versus valsartan after adjustment for the change in blood pressure” value ([4]; 12 weeks, p=0.01)?
A: Its value is “greater reduction”.

Q: And the “Early reduction in NT-proBNP compared with the valsartan group” value ([4]; after 4 weeks of treatment, p=0.063)?
A: Its value is “not significant”.

Q: And the “Ratio of change in NT-proBNP (LCZ696/valsartan) at 12 weeks” value [4]?
A: Its value is 0.77.

Q: What about the “Ratio of change in NT-proBNP (LCZ696/valsartan) at 12 weeks” value ([4]; listed as LZC696) of the same compound?
A: The value was 0.77 (95% CI.

Q: What about the “Ratio of change in NT-proBNP (LCZ696/valsartan) at 36 weeks” value ([4]; baseline to 36 weeks, 95% CI 0.65-1.09, p = 0.20) of the same compound?
A: Its value is 0.85 (95% CI.

Q: And the “NT-proBNP at 12 weeks” value ([4]; 12 weeks)?
A: Its value is 605 pg/mL.

Q: What about the “NT-proBNP at 36 weeks” value [4] of the same compound?
A: Its value is 496 pg/mL.

Q: And the “NT-proBNP, Baseline (12-week analysis)” value [4]?
A: The value was 783 pg/mL.

Q: And the “NT-proBNP, Baseline (36-week analysis)” value [4]?
A: The value was 763 pg/mL.
